Structures are written as SMILES.

In assay [1] the test system is HEK-293 cells. In words: Caspase-3 activity assay, protection from 3-nitropropionate. It counts as cell-based, Human. The conditions noted are these: 8 mM 3-NP, 12 hours, over control.
In assay [2] the test system is HEK-293 cells. In words: Caspase-3 activity assay, protection from staurosporine. The conditions noted are these: 1 μM staurosporine, 12 hours, vs citrate buffer control. It counts as cell-based, Human.

For the molecule `O=C(O)CC[N+](=O)[O-]` [3-NP, 3-nitropropionate], the “increase of caspase-3 activity by toxin” value in assay [1] was “approximately 100%”.
As to `CN[C@@H]1C[C@H]2O[C@@](C)([C@@H]1OC)n1c3ccccc3c3c4c(c5c6ccccc6n2c5c31)C(=O)NC4` [staurosporine], the “increase of caspase-3 activity by toxin” value in assay [2] is reported as “approximately 80%”.

The values are drawn from paper PMC3091812 (Neuropeptides, 2011).
